pEC50: −log10 of the molar value.
Legend:
Assay type in all cases: cell-based
BmorOR1 [1] = target: T1, BmorOR1 (Bombyx mori, UniProt Q5WA61); assay: two-electrode voltage clamp in Xenopus oocytes expressing BmorOR1 and BmorOrco (perfusion)
T1 construct: gene BmOR-1; full-length; with BmorOrco
T1 sequence (Q5WA61 1-430): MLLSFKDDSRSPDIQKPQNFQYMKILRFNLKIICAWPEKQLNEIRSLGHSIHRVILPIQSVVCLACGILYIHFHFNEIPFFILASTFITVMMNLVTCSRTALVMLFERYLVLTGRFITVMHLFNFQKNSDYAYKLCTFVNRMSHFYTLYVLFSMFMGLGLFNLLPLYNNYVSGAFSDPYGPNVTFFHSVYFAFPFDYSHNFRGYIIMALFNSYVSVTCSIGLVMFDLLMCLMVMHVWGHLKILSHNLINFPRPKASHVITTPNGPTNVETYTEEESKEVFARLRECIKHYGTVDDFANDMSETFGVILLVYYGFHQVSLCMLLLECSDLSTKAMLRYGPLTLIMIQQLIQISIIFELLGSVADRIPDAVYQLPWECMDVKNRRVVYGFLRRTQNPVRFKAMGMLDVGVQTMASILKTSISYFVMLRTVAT
T1 sequence (Q7YT34 1-472 partner): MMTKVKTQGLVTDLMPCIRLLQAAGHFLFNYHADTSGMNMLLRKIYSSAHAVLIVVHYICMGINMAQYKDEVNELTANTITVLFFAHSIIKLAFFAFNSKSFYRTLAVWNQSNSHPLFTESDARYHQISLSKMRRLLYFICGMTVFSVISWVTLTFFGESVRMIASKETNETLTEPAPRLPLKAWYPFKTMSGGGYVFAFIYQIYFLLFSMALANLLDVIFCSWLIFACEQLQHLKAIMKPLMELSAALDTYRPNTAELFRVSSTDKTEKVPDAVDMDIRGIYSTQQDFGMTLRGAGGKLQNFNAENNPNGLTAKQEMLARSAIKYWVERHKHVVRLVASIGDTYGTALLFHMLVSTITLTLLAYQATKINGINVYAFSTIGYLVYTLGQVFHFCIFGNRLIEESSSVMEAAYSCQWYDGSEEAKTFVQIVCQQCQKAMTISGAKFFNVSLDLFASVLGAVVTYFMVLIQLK

BmorOR1 [2] = target: T1, BmorOR1; assay: two-electrode voltage clamp in Xenopus oocytes expressing BmorOR1 and BmorOrco (injection, source dose)
BmorOR1 [3] = target: T1, BmorOR1; assay: two-electrode voltage clamp in Xenopus oocytes expressing BmorOR1 and BmorOrco, dose-response

Row | Compound | pEC50 (BmorOR1 [3]) | other results
1 | CCC/C=C\C=C\CCCCCCCCCO [compound 1, (10E,12Z)-hexadecadien-1-ol] | – | pEC50 (BmorOR1 [1]): 7.34
2 | CCC/C=C\C=C\CCCCCCCCC=O [bombykal] | – | pEC50 (BmorOR1 [2]): 5.02
3 | CCC/C=C\C=C\CCCC/C=C\CCCO [compound 11, (4Z,10E,12Z)-hexadecatrien-1-ol] | 4.89 | –
4 | CCC/C=C\C=C\CCCCC#CCCCO [compound 10] | 4.77 | –
